Experimental findings from US20040018501A1, “Methods and systems for analyzing complex biological systems” (priority 2001, published 2004) are described below.

The subject of assay [1] is Arabidopsis thaliana plants. The assay is described as follows: SOA1 phenotypic analysis of herbicide-treated plants. The assay is classed as in vivo. As to conditions: for Symptom Class: three-week-old plants, foliar spray; for characteristic symptoms (phenotype): herbicide-treated plants.
Assay [2] relates to Arabidopsis thaliana. The assay is described as follows: MOA1 gene expression profiling (22,000-gene microarray). To be noted: regulated genes compared to internal list of essential genes.
Assay [3] has as its system Arabidopsis thaliana. The assay is described as follows: MOA1 biochemical (metabolite) profiling by LC-MS and GC-MS. As to conditions: within one hour after spraying.
Assay [4] concerns Saccharomyces cerevisiae wild type strain BY4743. The assay is described as follows: AF1 yeast metabolite analysis by GC-MS and LC-MS. It counts as cell-based.
Where [5] appears, read: numeric value standardized to mock treated.

As for `O=C(O)COc1ccc(Cl)cc1Cl` [2,4-D], in assay [1] (setting [5]), the “tMic Dev.” value is on record as 2. Moreover, in assay [1], the “Symptom Class” value is 5.
Take `O=C(O)c1cc(Oc2ccc(C(F)(F)F)cc2Cl)ccc1[N+](=O)[O-]` [Acifluorfen]: in assay [1], the “characteristic symptoms (phenotype)” value is recorded as “Necrotic leaf flecks”.
Still for that read-out and setting: to `Nc1nc[nH]n1` [Amitrole] belongs “leaf bleaching and leaf enlargement”.
Take `COC(=O)NS(=O)(=O)c1ccc(N)cc1` [Asulam]: the “No. of Lethal Genes Altered” value with Arabidopsis thaliana [2] turned out to be 5.
For `CCNc1nc(Cl)nc(NC(C)C)n1` [Atrazine], in assay [1], the “characteristic symptoms (phenotype)” value was “rapid and widespread leaf necrosis”.
On the same count and under the same terms, the same measure for `CC(C)N1C(=O)c2ccccc2NS1(=O)=O` [Bentazon]: “rapid and widespread leaf necrosis”.
Same read-out and setting: the same measure for `COC(=O)c1cc(Oc2ccc(Cl)cc2Cl)ccc1[N+](=O)[O-]` [Bifenox]: “Necrotic leaf flecks”.
As for `CCSC(=O)N(CC(C)C)CC(C)C` [Butylate], the stress-related metabolites entry with Arabidopsis thaliana [3] was “neither butylate nor chlorpropham treatment resulted in many changes”.
Same read-out and setting: to `CC(C)OC(=O)Nc1cccc(Cl)c1` [Chloropropham] belongs “neither butylate nor chlorpropham treatment resulted in many changes”.
Take `COc1nc(C)nc(NC(=O)NS(=O)(=O)c2ccccc2Cl)n1` [Chlorsulfuron]: the “characteristic symptoms (phenotype)” value in assay [1] is given as “anthocyanin accumulation in the older leaves accompanied by chlorosis of the newly emerging leaves”. Further, the “No. of Lethal Genes Altered” value in the assay on Arabidopsis thaliana [2] is 8.
As to `c1cc[n+]2c(c1)-c1cccc[n+]1CC2` [Diquat], in assay [1], the “characteristic symptoms (phenotype)” value is “rapid and widespread leaf necrosis”; the “Symptom Class” value was found to be 7. Besides, the “tMic Dev.” value in assay [1] (setting [5]) is on record as 2.
For `CN(C)C(=O)Nc1ccc(Cl)c(Cl)c1` [Diuron], in assay [1], the “characteristic symptoms (phenotype)” value was “rapid and widespread leaf necrosis”; the “Symptom Class” value is 7. Moreover, in assay [1] (setting [5]), the “newLeafAnthocyanins Dev.” value was “newLeafAnthocyanins 0” and the “tMic Dev.” value is recorded as 1.
For the compound `OC(Cn1cncn1)(Cn1cncn1)c1ccc(F)cc1F` [Fluconazole], in assay [4] (GC), the “Fold Change of TMS mevalonic acid lactone” value was 0.1434, the “Fold Change of squalene” value stood at 0.1999, the “Fold Change of tetradecanoic acid” value is recorded as 0.07967 and the “Fold Change of threonine2” value is 0.5053. In addition, in assay [4] (GC), the “Fold Change of threonine3” value came out at 0.2513, the “Fold Change of tms glutamine3” value came out at 0.7271, the “Fold Change of tms lysine4” value is given as 0.3657 and the “Fold Change of tms tyrosine2” value came to 0.8643. For the same compound, in assay [4] (GC), the “Fold Change of tms tyrosine3” value stood at 0.3321 and the “Fold Change of valine” value is given as 0.2727. Further, in assay [4] (nLC), the “Fold Change of retinoic acid” value came out at 0, the “Fold Change of salicylic/HObenzoic” value was 0, the “Fold Change of selenoDLmethionine” value is listed as −0.5748 and the “Fold Change of serine” value turned out to be 0.3936. Moreover, in assay [4] (nLC), the “Fold Change of shikimic acid” value came out at 0, the “Fold Change of sinapinic acid” value turned out to be 0, the “Fold Change of sorbitol/mannitol” value is 0.365 and the “Fold Change of succinic” value was determined as 0.3094. In addition, in assay [4] (nLC), the “Fold Change of sucrose” value stood at 0.3104, the “Fold Change of sugar-phosphate” value was −0.05306, the “Fold Change of tetradecanoic acid” value amounted to 0.5495 and the “Fold Change of threonine/homoserin” value was 0.3257. In assay [4] (nLC), the “Fold Change of thymine” value was 0, the “Fold Change of tryptophan” value was determined as 1.649, the “Fold Change of tyrosine” value was found to be 0.2303 and the “Fold Change of uracil” value stood at 1.256. Besides, in assay [4] (nLC), the “Fold Change of uridine” value is 0.3463, the “Fold Change of urocanic acid” value amounted to 0, the “Fold Change of valine” value came out at 0.3235 and the “Fold Change of xanthosineDiH2O” value is given as 0. Further, in assay [4] (nLC), the “Fold Change of zeatin” value was found to be 0. Besides, in assay [4] (pLC), the “Fold Change of riboflavin” value came to 0, the “Fold Change of selenoDLmethionine” value was −0.6865, the “Fold Change of serine” value is on record as 0.11 and the “Fold Change of sugar-phosphate” value is on record as 0. Also, in assay [4] (pLC), the “Fold Change of thiamine” value is listed as 0, the “Fold Change of threonine/homoserin” value is 0.1604, the “Fold Change of thymine” value is recorded as 0 and the “Fold Change of tryptophan” value was determined as 0. Besides, in assay [4] (pLC), the “Fold Change of tyrosine” value is reported as 0.1099, the “Fold Change of uric acid” value turned out to be 0, the “Fold Change of urocanic acid” value is reported as 0 and the “Fold Change of xanthosine(diH2O)” value is listed as 0. Further, in assay [4] (pLC), the “Fold Change of zeatin” value came out at 0. In assay [4] (platform GC), the “Fold Change of campesterol” value worked out at 0, the “Fold Change of desmosterol” value was determined as 0 and the “Fold Change of octadecanoic acid” value is 0.082. Besides, in assay [4] (platform LC), the “Fold Change of abscisic acid” value came to 0 and the “Fold Change of adenosine” value is 0. In assay [4] (platform nLC), the “Fold Change of 4-methylcatechol” value was found to be 0, the “Fold Change of 5hydroxyLtryptophan” value is listed as 0, the “Fold Change of 6-benzylaminopurine” value is recorded as 0 and the “Fold Change of NacetylDglucosamine” value came out at 0. For the same compound, in assay [4] (platform nLC), the “Fold Change of NacetylLornithine” value was found to be 0, the “Fold Change of abscisic acid” value is reported as 0, the “Fold Change of adenine” value came out at 0 and the “Fold Change of adenosine” value turned out to be 0. In assay [4] (platform nLC), the “Fold Change of anthranilic acid” value worked out at 0, the “Fold Change of argininosuccinate” value is recorded as 0, the “Fold Change of benzoic acid” value is on record as 0 and the “Fold Change of catechol” value came out at 0. Further, in assay [4] (platform nLC), the “Fold Change of cinnamic acid” value was 0, the “Fold Change of citricanoic/itaconi” value is on record as 0, the “Fold Change of citrulline” value is on record as 0 and the “Fold Change of coumaric acid” value is on record as 0. For the same compound, in assay [4] (platform nLC), the “Fold Change of cytosine” value was determined as 0, the “Fold Change of diaminopimelic acid” value was 0, the “Fold Change of dihydrofolic acid” value was 0 and the “Fold Change of estrone” value stood at 0. Besides, in assay [4] (platform nLC), the “Fold Change of farnesol” value was determined as 0, the “Fold Change of folic acid” value is reported as 0, the “Fold Change of gibberellic” value was found to be 0 and the “Fold Change of glutamine/lysine” value worked out at 0.3309. For the same compound, in assay [4] (platform nLC), the “Fold Change of guanine” value is on record as 0, the “Fold Change of histidine” value is reported as 0, the “Fold Change of homogentisic/uric” value came out at 0 and the “Fold Change of hydrocortisone” value is 0. Besides, in assay [4] (platform nLC), the “Fold Change of indole3pyruvic acid” value stood at 0, the “Fold Change of jasmonic acid” value amounted to 0, the “Fold Change of kinetin” value is reported as 0 and the “Fold Change of luteolin” value came to 0. Besides, in assay [4] (platform nLC), the “Fold Change of malonic acid” value was determined as 0, the “Fold Change of methionine” value came out at 0, the “Fold Change of orotic acid” value came out at 0 and the “Fold Change of phenylpyruvic acid” value amounted to 0. Besides, in assay [4] (platform nLC), the “Fold Change of phosphoenolpyruvate” value was 0, the “Fold Change of pinitol” value turned out to be 0 and the “Fold Change of porphobilinogen” value is listed as 0. In assay [4] (platform pLC), the “Fold Change of 4-aminobenzoic acid” value came to 0, the “Fold Change of 4-methylcatechol” value is reported as 0, the “Fold Change of 5hydroxyLtryptophan” value is listed as 0 and the “Fold Change of 6benzylaminopurine” value came to 0. In addition, in assay [4] (platform pLC), the “Fold Change of NacetylDglucosamine” value was 0, the “Fold Change of NacetylLglutamate” value is listed as 0, the “Fold Change of allantoic acid” value is on record as 0 and the “Fold Change of anthranilic acid” value was 0. For the same compound, in assay [4] (platform pLC), the “Fold Change of argininosuccinate” value is recorded as 0, the “Fold Change of biotin” value worked out at 0, the “Fold Change of caffeine” value stood at 0 and the “Fold Change of citric acid TME” value was determined as 0. Further, in assay [4] (platform pLC), the “Fold Change of cytidine” value is given as 0, the “Fold Change of cytosine” value was determined as 0, the “Fold Change of diaminopimelic acid” value is recorded as 0 and the “Fold Change of dihydrofolic acid” value came out at 0. In addition, in assay [4] (platform pLC), the “Fold Change of dipicolinic acid” value is 0, the “Fold Change of folic acid” value worked out at 0, the “Fold Change of glucosamine” value is reported as 0 and the “Fold Change of glucosamine6PO4” value was determined as 0. In assay [4] (platform pLC), the “Fold Change of histidine” value was found to be 0, the “Fold Change of hydrocortisone” value was 0, the “Fold Change of itaconic acid dimes” value is 0 and the “Fold Change of kinetin” value amounted to 0. Also, in assay [4] (platform pLC), the “Fold Change of luteolin” value worked out at 0, the “Fold Change of niacinamide” value was 0, the “Fold Change of nopaline” value worked out at 0 and the “Fold Change of phosphoenolpyruvate” value is on record as 0. For the same compound, in assay [4] (platform pLC), the “Fold Change of progesterone” value came to 0.
For the compound `CP(=O)(O)CCC(N)C(=O)O` (centres unmarked) [Glufosinate], in assay [1], the “characteristic symptoms (phenotype)” value is “Chlorosis and leaf curling”; the “Symptom Class” value was 3. Also, the “tMic Dev.” value in assay [1] (setting [5]) is given as 1. Moreover, the “No. of Lethal Genes Altered” value in the assay on Arabidopsis thaliana [2] is on record as 10.
As to `CC(C)C1(C)N=C(c2ncccc2C(=O)O)NC1=O` (centres unmarked) [Imazapyr], the “characteristic symptoms (phenotype)” value in assay [1] is “anthocyanin accumulation in the older leaves accompanied by chlorosis of the newly emerging leaves”.
As to `CCc1cnc(C2=NC(C)(C(C)C)C(=O)N2)c(C(=O)O)c1` (centres unmarked) [Imazethapyr], the “characteristic symptoms (phenotype)” value in assay [1] is “anthocyanin accumulation in the older leaves accompanied by chlorosis of the newly emerging leaves”.
`CC(=O)N1CCN(c2ccc(OCC3COC(Cn4ccnc4)(c4ccc(Cl)cc4Cl)O3)cc2)CC1` (centres unmarked) [Ketoconazole]: the “# Compounds perturbed” value in assay [4] (P < 0.1, 2×MIC, two hours) stood at 15.
For the compound `CSc1nnc(C(C)(C)C)c(=O)n1N` [Metribuzin], in assay [1], the “characteristic symptoms (phenotype)” value was “rapid and widespread leaf necrosis”.
`O=C(O)c1ccccc1C(=O)Nc1cccc2ccccc12` [Naptalam]: the “No. of Lethal Genes Altered” value in the assay with Arabidopsis thaliana [2] was 3.
Regarding `C[n+]1ccc(-c2cc[n+](C)cc2)cc1` [Paraquat], in assay [1], the “characteristic symptoms (phenotype)” value is “rapid and widespread leaf necrosis”; the “Symptom Class” value amounted to 7.
On to `CC[C@@H]([C@H](C)O)n1ncn(-c2ccc(N3CCN(c4ccc(OC[C@@H]5CO[C@@](Cn6cncn6)(c6ccc(F)cc6F)C5)cc4)CC3)cc2)c1=O` [Posaconazoie], for which, in assay [4] (LC), the “Fold Change of luteolin” value is listed as 0.
Turning to `CC[C@@H]([C@H](C)O)n1ncn(-c2ccc(N3CCN(c4ccc(OC[C@@H]5CO[C@@](Cn6cncn6)(c6ccc(F)cc6F)C5)cc4)CC3)cc2)c1=O` [Posaconazote], the “Fold Change, porphobilinogen” value in assay [4] (detected metabolite porphobilinogen, platform nLC) was determined as 0.
